Here are results for three molecules from ChEMBL document CHEMBL3784917, “Recent Progress in Histone Demethylase Inhibitors” (J Med Chem, 2016).

In assay [1] the target is Lysine-specific demethylase 5C (Homo sapiens, UniProt P41229). Description: biochemical.
The target of assay [2] is Lysine-specific demethylase 5B (Homo sapiens, UniProt Q9UGL1).
Assay [3] deals with T1, Lysine-specific demethylase 4C (Homo sapiens, UniProt Q9H3R0).
T1 sequence (Q9H3R0 whole entry): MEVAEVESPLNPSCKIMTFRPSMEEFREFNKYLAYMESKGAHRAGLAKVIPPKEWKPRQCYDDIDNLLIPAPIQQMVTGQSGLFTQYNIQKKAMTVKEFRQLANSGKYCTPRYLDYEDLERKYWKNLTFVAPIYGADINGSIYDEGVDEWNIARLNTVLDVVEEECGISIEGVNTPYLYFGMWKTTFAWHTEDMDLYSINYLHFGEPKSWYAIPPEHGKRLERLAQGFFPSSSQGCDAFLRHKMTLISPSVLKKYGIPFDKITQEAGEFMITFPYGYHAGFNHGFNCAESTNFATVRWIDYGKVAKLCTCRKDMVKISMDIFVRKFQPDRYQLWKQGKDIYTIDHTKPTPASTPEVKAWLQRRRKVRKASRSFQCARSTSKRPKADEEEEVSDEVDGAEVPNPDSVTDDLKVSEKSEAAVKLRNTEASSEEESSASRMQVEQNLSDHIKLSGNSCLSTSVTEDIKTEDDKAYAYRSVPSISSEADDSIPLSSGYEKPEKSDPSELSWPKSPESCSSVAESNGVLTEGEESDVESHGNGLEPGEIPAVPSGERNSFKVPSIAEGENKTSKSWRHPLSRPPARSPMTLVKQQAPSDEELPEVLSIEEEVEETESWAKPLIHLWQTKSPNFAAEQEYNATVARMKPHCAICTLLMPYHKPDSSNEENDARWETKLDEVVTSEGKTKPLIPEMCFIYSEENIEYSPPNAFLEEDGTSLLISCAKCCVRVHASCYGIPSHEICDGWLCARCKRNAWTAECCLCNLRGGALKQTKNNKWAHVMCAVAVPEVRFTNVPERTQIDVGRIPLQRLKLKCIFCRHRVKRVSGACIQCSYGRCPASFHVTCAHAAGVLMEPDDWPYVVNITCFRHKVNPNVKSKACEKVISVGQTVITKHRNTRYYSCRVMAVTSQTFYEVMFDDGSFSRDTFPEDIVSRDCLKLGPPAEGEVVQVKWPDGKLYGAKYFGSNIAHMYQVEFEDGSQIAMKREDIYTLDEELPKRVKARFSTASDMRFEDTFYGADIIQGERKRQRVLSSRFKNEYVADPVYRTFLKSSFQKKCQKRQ

Assay [4] concerns MCF7. Kind of assay: Antiproliferative activity against human MCF7 cells assessed as reduction in cell viability after 120 hrs by ATPlite assay. As to conditions: MCF7, 120 h. The format is functional, cell-based. In general terms: In ATP-based viability assays light output follows the ATP content of the culture.
The target of assay [5] is T2, Lysine-specific demethylase 4B (Homo sapiens, UniProt O94953).
T2 sequence (O94953 whole entry): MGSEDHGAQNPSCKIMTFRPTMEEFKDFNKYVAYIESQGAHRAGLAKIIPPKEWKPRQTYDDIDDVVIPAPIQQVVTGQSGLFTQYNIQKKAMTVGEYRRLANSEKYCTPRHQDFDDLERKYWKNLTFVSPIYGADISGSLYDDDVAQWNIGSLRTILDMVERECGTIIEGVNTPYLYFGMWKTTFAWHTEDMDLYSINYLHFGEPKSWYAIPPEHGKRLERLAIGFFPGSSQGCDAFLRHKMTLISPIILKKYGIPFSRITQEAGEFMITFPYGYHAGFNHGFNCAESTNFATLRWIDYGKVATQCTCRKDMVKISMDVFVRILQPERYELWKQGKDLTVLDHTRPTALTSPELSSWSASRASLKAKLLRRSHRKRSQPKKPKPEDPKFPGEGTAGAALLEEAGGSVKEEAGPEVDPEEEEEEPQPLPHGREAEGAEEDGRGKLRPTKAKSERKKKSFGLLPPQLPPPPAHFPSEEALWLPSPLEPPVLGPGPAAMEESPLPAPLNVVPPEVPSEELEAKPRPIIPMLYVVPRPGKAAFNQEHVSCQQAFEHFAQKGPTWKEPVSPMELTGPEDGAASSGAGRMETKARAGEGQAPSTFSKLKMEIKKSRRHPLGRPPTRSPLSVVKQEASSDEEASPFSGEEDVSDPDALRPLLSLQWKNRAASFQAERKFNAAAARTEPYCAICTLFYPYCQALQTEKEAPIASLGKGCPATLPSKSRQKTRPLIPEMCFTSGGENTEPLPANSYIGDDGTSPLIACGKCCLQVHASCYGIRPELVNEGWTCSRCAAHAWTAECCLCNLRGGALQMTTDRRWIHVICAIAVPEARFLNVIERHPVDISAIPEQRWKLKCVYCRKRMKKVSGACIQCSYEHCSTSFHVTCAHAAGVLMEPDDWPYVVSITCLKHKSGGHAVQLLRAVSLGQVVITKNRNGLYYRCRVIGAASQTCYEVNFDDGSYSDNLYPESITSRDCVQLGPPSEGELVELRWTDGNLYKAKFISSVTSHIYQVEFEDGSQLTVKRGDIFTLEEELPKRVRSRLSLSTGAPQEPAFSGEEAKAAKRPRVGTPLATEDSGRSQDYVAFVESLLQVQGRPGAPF
Kind of assay: Inhibition of human N-terminal GST-tagged KDM4B (1 to 500 residues) expressed in baculovirus infected sf9 cells using biotinylated histone H3 as substrate preincubated for 10 mins followed by substrate addition measured after 10 mins by AlphaLisa assay.

Assay [6] deals with Lysine-specific demethylase 6A (Homo sapiens, UniProt O15550).
Lysine-specific demethylase 6A, sequence (O15550 whole entry): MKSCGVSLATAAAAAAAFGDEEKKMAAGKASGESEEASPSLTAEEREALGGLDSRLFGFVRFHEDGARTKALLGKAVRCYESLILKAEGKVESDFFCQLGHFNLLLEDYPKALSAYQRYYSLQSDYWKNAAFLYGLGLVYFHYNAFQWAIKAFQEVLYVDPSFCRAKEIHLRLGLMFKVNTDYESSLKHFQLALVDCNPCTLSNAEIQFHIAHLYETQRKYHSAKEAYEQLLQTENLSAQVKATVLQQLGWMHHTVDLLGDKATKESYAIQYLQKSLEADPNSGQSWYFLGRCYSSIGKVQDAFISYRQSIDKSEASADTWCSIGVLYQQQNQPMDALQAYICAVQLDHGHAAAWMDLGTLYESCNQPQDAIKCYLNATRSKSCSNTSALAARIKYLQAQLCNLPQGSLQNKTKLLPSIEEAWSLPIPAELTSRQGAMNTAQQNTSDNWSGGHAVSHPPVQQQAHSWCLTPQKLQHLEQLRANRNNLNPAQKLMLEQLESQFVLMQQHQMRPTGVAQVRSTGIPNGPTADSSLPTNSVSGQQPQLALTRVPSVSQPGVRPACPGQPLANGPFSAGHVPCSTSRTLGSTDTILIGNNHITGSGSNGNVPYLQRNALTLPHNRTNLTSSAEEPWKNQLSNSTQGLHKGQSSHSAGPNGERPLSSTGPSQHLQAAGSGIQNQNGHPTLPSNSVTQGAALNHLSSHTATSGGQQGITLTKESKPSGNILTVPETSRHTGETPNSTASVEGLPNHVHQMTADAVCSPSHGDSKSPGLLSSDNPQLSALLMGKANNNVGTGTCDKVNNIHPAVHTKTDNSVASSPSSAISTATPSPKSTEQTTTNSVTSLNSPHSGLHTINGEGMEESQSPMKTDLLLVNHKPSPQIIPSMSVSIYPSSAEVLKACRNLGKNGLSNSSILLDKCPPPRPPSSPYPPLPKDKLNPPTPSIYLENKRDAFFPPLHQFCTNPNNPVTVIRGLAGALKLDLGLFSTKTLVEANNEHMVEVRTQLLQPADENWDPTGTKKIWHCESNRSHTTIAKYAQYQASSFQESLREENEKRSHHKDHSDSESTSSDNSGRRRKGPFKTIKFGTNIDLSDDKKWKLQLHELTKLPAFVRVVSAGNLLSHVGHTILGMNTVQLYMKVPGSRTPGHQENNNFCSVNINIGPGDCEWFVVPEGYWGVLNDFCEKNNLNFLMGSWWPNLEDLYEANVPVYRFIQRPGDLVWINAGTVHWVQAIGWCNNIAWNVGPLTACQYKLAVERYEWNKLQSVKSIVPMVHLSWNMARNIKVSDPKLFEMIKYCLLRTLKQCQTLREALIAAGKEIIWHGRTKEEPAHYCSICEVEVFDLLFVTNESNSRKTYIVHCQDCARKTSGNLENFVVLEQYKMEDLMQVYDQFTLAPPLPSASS
Assay [7] has as its target Lysine-specific demethylase 6B (Homo sapiens, UniProt O15054). Description: biochemical.
In assay [8] the target is Lysine-specific demethylase 3B (Homo sapiens, UniProt Q7LBC6). Description: biochemical.

Where only a bound is given, the exact number is not on record here.

Lysine-specific demethylase 5B, sequence (Q9UGL1 whole entry): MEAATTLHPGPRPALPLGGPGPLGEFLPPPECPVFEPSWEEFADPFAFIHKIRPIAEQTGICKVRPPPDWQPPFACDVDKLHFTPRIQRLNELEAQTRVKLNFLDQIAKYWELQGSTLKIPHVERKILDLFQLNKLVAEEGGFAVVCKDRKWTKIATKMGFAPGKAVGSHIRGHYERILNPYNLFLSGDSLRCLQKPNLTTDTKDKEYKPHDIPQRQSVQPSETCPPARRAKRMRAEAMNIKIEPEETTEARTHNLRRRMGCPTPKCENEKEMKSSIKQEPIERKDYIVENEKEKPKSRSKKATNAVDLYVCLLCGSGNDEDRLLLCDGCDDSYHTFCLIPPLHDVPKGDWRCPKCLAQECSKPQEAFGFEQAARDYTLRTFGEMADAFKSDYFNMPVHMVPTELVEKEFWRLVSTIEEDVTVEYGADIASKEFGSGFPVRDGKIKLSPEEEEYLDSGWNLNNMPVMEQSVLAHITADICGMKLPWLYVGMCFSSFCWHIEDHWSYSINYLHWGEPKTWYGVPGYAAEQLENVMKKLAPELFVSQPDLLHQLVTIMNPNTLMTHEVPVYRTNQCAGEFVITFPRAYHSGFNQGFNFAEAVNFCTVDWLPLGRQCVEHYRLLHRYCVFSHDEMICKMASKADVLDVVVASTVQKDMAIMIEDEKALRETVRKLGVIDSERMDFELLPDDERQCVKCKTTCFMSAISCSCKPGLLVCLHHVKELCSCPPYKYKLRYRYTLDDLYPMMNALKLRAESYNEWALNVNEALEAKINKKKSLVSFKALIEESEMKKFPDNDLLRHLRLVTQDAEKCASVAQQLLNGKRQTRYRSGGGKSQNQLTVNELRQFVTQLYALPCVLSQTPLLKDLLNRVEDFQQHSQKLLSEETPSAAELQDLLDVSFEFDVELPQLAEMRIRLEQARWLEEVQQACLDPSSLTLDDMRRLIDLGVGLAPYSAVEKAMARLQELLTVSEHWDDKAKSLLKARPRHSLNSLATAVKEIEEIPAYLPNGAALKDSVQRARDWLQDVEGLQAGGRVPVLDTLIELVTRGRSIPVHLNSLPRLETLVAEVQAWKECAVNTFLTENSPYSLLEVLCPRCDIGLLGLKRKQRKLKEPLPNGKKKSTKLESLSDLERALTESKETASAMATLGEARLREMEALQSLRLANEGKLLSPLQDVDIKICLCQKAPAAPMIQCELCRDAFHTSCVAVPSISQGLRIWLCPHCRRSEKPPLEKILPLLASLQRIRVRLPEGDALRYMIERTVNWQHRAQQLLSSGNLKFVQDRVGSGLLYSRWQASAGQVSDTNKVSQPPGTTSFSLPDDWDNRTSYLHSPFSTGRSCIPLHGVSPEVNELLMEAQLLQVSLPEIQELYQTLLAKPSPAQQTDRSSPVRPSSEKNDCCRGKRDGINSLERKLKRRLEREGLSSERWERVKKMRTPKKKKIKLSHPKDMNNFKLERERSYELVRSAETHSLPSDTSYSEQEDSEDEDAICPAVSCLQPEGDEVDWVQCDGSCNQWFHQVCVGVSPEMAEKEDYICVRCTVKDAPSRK
Lysine-specific demethylase 6B, sequence (O15054 whole entry): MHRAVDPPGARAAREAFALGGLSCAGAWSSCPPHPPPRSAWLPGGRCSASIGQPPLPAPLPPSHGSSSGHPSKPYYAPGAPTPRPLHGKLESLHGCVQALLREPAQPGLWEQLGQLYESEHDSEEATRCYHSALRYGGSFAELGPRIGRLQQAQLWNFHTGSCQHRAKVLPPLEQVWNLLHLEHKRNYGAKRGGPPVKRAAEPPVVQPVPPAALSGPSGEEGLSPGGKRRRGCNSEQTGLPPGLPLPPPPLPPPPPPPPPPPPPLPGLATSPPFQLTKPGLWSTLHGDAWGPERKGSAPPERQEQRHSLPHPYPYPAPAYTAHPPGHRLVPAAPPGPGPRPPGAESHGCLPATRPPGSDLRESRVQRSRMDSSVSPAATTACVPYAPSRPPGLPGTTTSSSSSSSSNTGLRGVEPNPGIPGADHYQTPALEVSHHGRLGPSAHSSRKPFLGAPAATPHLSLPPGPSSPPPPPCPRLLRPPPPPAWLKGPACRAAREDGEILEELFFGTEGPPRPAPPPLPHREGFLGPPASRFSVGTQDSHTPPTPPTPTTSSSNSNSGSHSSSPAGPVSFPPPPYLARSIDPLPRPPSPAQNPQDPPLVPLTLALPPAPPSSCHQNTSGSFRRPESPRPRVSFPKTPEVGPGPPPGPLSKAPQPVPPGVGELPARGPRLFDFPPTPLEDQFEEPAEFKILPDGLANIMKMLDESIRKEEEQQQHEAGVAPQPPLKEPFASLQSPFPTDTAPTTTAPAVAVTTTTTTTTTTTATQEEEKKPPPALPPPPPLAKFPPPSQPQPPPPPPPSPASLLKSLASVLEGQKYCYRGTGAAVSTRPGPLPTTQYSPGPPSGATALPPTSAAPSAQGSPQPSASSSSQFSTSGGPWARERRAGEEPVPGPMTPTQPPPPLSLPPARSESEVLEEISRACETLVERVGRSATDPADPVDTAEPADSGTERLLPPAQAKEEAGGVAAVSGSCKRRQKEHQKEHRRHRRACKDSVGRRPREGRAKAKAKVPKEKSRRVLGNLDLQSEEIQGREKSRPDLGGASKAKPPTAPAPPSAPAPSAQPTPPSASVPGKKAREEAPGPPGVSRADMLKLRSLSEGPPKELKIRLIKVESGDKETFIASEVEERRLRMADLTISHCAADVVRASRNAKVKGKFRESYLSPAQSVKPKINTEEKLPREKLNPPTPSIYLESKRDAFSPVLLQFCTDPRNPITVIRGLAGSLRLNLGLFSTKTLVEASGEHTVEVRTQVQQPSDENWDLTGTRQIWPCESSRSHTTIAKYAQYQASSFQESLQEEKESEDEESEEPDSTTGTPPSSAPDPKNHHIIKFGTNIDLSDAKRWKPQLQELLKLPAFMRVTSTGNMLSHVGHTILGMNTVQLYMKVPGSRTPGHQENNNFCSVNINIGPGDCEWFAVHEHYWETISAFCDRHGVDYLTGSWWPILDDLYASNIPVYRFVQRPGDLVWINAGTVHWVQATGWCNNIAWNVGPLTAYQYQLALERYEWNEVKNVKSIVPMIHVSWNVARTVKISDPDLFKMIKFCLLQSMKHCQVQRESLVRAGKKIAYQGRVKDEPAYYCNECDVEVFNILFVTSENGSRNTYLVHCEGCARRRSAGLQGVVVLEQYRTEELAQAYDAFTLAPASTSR

As to `CCN(CCN(C)C)C(=O)CNCc1cc(C(=O)O)ccn1`, the IC50 was less than 100 nM in assay [1]; less than 100 nM in assay [2]; less than 100 nM in assay [3]; 1000 nM in assay [4]; less than 100 nM in assay [5]; greater than 1000 nM in assay [6]. Further, the IC50 in assay [7] and in assay [8] was greater than 1000 nM each time.

As for `CCN(CC)CCCCNCc1cc(C=O)ccn1`, the IC50 in assay [1] is less than 250 nM; in assay [2], less than 250 nM; in assay [3], greater than 2500 nM; in assay [5] it was less than 250 nM; in assay [6], greater than 2500 nM; in assay [7] it was greater than 2500 nM. In addition, in assay [8], the IC50 was greater than 2500 nM. Also, the EC50 in assay [4] was less than 250 nM.

Consider `CCN(CCN(C)C)C(=O)CNCc1cc(CNC(=O)C(F)(F)F)ccn1`, for which the IC50 is 250 nM in assay [1]; 250 nM in assay [2]; greater than 2500 nM in assay [3]; greater than 2500 nM in assay [5]; greater than 2500 nM in assay [6]; greater than 2500 nM in assay [7]. Further, in assay [8], the IC50 is greater than 2500 nM.

A word on the IC50: it is the point on the concentration scale where inhibition reaches its midpoint. The term EC50 denotes the midpoint of the concentration-response curve.
